Results as given in US20240268381A1, “Agricultural Chemical Formulation” (ExxonMobil Chemical Patents Inc., priority 2021, published 2024).

Columns and labels:
Format in all cases: physicochemical
[1] = Solvency test, active ingredient fluroxypyr; settings: wt % active ingredient in solution; highest concentration with no crystals at room temperature
Protocol: (§1) Solvency of solvents E1-E5 and C1-C8 was tested by dissolving various solid active ingredients in each solvent. The following pesticides were tested as active ingredients: trifluralin, fluroxypyr, bromoxynil octanoate, and 2-methyl-4-chlorophenoxyacetic acid (MCPA). Solvency was characterized by the weight ratio of an active ingredient in a solvent and was determined by adding 0.5 gram of active ingredient to a vial equipped with a stir bar and then charging the solvent to achieve a desired concentration. The vials were capped and placed into a water bath kept at a temperature 5 to 10° C. below the melting point of tested pesticide. The mixture was stirred in the vial for 24 hours. If the active ingredient was fully dissolved, the mixture was transferred to a room temperature water bath. If no active ingredient crystals were formed, a higher concentration of active ingredient was tested. Conversely, if active ingredient crystals were formed, a lower concentration of active ingredient was tested. Solubility was recorded as the highest concentration of active ingredient in the tested solvent with no formation of crystals. Concentrations were tested at a 5% interval. For example, if the active ingredient was dissolved at 50%, 55% would be the next concentration to be tested. Concentrations below 15 wt % were not tested.

[2] = Kinematic viscosity at 25° C. (ASTM D7042)
Protocol: (§2) The following properties of the solvents were tested: • Kinematic viscosity at 25° C. […] The funnel containing the mixture was inverted several times. The water and solvent phases were allowed to separate for 24 hours, resulting in two distinct phases. For water solubility in solvent, the solvent layer was transferred to a sample vial and was tested for water content according to ASTM E1064. For solvent solubility in water, the water layer was transferred to a sample vial and was tested by a gas chromatography test method for solvent content. Water content, water solubility, and solvent solubility in water were not tested for solvents C2-C5.

[3] = Solvency test, active ingredient MCPA; settings: wt % active ingredient in solution; concentrations below 15 wt % not tested
Protocol: as §1

[4] = Water solubility in solvent; settings: 20 g solvent mixed with 20 g water, phases separated 24 hours, solvent layer tested
Protocol: as §2

[5] = Solvency test, active ingredient bromoxynil octanoate; settings: wt % active ingredient in solution; highest concentration with no crystals at room temperature
Protocol: as §1

[6] = Density at 25° C. (ASTM D4052)
[7] = Water content of the solvents, Karl Fischer titration (ASTM E1064)
Protocol: as §2

[8] = Solvency test, active ingredient trifluralin; settings: wt % active ingredient in solution; highest concentration with no crystals at room temperature
Protocol: as §1

[9] = Solvent solubility in water; settings: 20 g solvent mixed with 20 g water, phases separated 24 hours, water layer tested by gas chromatography
Protocol: as §2

[10] = Hydrolytic stability in pH 4.5 or pH 8.5 buffer; settings: 54° C., 14 days, 13C NMR; for Hydrolysis at pH 4.5: pH 4.5 buffer; for Hydrolysis at pH 8.5: pH 8.5 buffer
Protocol: Hydrolytic stability was characterized by mixing the tested solvent with an excess of pH 4.5 or pH 8.5 buffer in a vial which was placed in a heated water bath (54° C.). After 14 days, the vial was cooled to room temperature and the content was allowed to separate into aqueous and organic (solvent) phases. The solvent phase was transferred to a clean vial and sodium sulfate was added to remove residual water. The mixture was filtered to obtain the solvent filtrate which was analyzed by ^13C NMR to measure the amount of hydrolysis products (acid or alcohol), if any.
Hydrolytic stability for solvents E3, C1, C2, and C6-C8 was not tested. No hydrolysis is expected for aromatic solvent C2 due to lack of hydrolysable bonds.

[11] = Pour point (ASTM D5950)
Protocol: as §2

Solvency, Fluroxypyr [1] [wt %]	KV25 [2] [cSt]	Solvency, MCPA [3] [wt %]	Water solubility in solvent [4] [vol %]	Solvency, Bromoxynil Octanoate [5] [wt %]	Density at 25° C. [6] [g/mL]	Water content [7] [ppm w/w]	Solvency, Trifluralin [8] [wt %]	Solvent solubility in water [9] [wt %]	Hydrolysis at pH 4.5 [10] [%]	Hydrolysis at pH 8.5 [10] [%]	Pour Point [11] [°C]	Compound
<15	66.27	<15	0.699	48.3	1.047	269	37.1	0.003				CCC(C)OC(=O)c1ccc(C(=O)OC(C)CC)o1 (centres unmarked) [Solvent C1, Di-sec butyl furan-2,5-dicarboxylate, reference compound]
	3.11	<15		69.7	1.001		62.8		0.5	6.7	−36	CCCCOC(=O)c1ccccc1 [Solvent C3, Butyl benzoate, reference compound]
59.8	2.20	15.1		72.9	1.051		61.2		22.5	6.8	−90	CC(=O)OCc1ccccc1 [Solvent C4, Benzyl acetate, reference compound]
62.2	5.33	<15		60.2	0.876		62.4		<1.0	<1.0	−6	CCCCCCCCCC(=O)N(C)C [Solvent C5, linear N,N-dimethyldecanamide, reference compound]
	9.60	<15	0.173	62.1	0.949	332	54.5	<0.001			−69	CC(C)CCCCCCCOC(=O)c1ccccc1 [Solvent C6, isodecyl benzoate]
60.2	1.69	<15	0.448	70.9	0.868	699	77.3	0.005	12.6	<1.0	−105	CC(=O)OCCCCCC(C)C [Solvent C7, isooctyl acetate]
<15	2.15	<15	0.369	67.5	0.867	722	72.9	<0.001			−102	CC(=O)OCCCCCCC(C)C [Solvent C8, isononyl acetate]
61.3	3.38	<15	0.386	73.0	0.992	499	72.6	0.008	<1.0	3.7	−81	CCC(C)OC(=O)c1ccccc1 (centres unmarked) [Solvent E1, Secondary butyl benzoate]
64.8	11.96	<15	0.394	68.3	1.042	102	66.8	0.007	2.7	1.7	−54	O=C(OC1CCCCC1)c1ccccc1 [Solvent E2, Cyclohexyl benzoate]
50.8	6.53	<15	0.265	68.6	0.962	113	64.1	<0.001				CC(C)CCCCCOC(=O)c1ccccc1 [Solvent E3, Isooctyl benzoate]
66.0	3.40	<15	0.422	68.8	0.966	232	69.5	0.010	0.3	<1.0	−90	CC(C)(C)C(=O)OCc1ccccc1 [Solvent E4, Benzyl pivalate]
63.0	7.29		2.457	63.5	0.883	589	65.0	0.141	<1.0	<1.0	−72	CN(C)C(=O)CCCCCC(C)(C)C [Solvent E5, N,N-dimethyl neodecanamide]
